Assay results reported in PubChem BioAssay AID330 (DTP/NCI, 2004).
Where “and” joins values, the source holds several entries; their conditions need not be identical. Equal values may be shown once. Inconclusive results and toxic doses are left out.

Tested on: P388 leukemia ip, CD2F1 mice, survival T/C
Experiment: NCI In Vivo Anticancer Drug Screen. Data for tumor model P388 Leukemia (intraperitoneal) in CD2F1 (CDF1) mice
Details: endpoint: median survival time, higher = longer survival
Method in brief: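 Mice carrying the transplanted tumor received test compound or vehicle. Survival was recorded in each group, and the value is the treated-group measurement divided by that of the vehicle-treated control group.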

[1] = dose: 100.0 mg/kg/injection, schedule: Q04DX003 (ip), vehicle: saline with Tween-80
[2] = dose: 200.0 mg/kg/injection, schedule: Q04DX003 (ip), vehicle: saline with Tween-80
[3] = dose: 100.0 mg/kg/injection, schedule: Q04DX002 (ip), vehicle: saline with Tween-80
[4] = dose: 200.0 mg/kg/injection, schedule: Q04DX002 (ip), vehicle: saline with Tween-80
[5] = dose: 60.0 mg/kg/injection, schedule: Q01DX005 (ip), vehicle: saline with Tween-80
[6] = dose: 50.0 mg/kg/injection, schedule: Q01DX005 (ip), vehicle: saline with Tween-80
[7] = dose: 100.0 mg/kg/injection, schedule: Q01DX005 (ip), vehicle: saline with Tween-80
[8] = dose: 200.0 mg/kg/injection, schedule: Q01DX005 (ip), vehicle: saline with Tween-80
[9] = dose: 50.0 mg/kg/injection, schedule: Q01DX009 (ip), vehicle: saline with Tween-80
[10] = dose: 100.0 mg/kg/injection, schedule: Q01DX009 (ip), vehicle: saline with Tween-80
[11] = dose: 200.0 mg/kg/injection, schedule: Q01DX009 (ip), vehicle: saline with Tween-80
[12] = dose: 120.0 mg/kg/injection, schedule: Q01DX005 (ip), vehicle: saline with Tween-80
[13] = dose: 240.0 mg/kg/injection, schedule: Q01DX005 (ip), vehicle: saline with Tween-80
[14] = dose: 12.5 mg/kg/injection, schedule: Q01DX005 (ip), vehicle: saline with Tween-80
[15] = dose: 25.0 mg/kg/injection, schedule: Q01DX005 (ip), vehicle: saline with Tween-80

Q: With COc1ccc(-c2nn(C)c3c2C(=O)C=CC3=O)cc1OC as the compound, how does the T/C (dose: 100.0 mg/kg/injection, schedule: Q01DX001 (ip), vehicle: Klucel (hydroxypropylcellulose) (HPC)) read?
A: 92 % of control

Q: And the T/C (dose: 200.0 mg/kg/injection, schedule: Q01DX001 (ip), vehicle: Klucel (hydroxypropylcellulose) (HPC))?
A: 106 % of control

Q: And the T/C (dose: 400.0 mg/kg/injection, schedule: Q01DX001 (ip), vehicle: Klucel (hydroxypropylcellulose) (HPC))?
A: 95 % of control

Q: What does the source list for CCCCCCCCCCCC1CCCC(C)N1 (stereo not drawn)?
A: T/C (dose: 12.5 mg/kg/injection, schedule: Q01DX005 (ip), vehicle: Klucel (hydroxypropylcellulose) (HPC)): 104 % of control; T/C (dose: 25.0 mg/kg/injection, schedule: Q01DX005 (ip), vehicle: Klucel (hydroxypropylcellulose) (HPC)): 100 % of control; T/C (dose: 50.0 mg/kg/injection, schedule: Q01DX005 (ip), vehicle: Klucel (hydroxypropylcellulose) (HPC)): 101 % of control

Q: Which results are given for O=C(CC(=NCC(O)CN=C(CC(=O)c1ccccc1)c1ccccc1)c1ccccc1)c1ccccc1.[Ni] (stereo not drawn)?
A: T/C (dose: 25.0 mg/kg/injection, schedule: Q04DX003 (ip), vehicle: saline with Tween-80): 94 % of control; T/C (dose: 50.0 mg/kg/injection, schedule: Q04DX003 (ip), vehicle: saline with Tween-80): 94 % of control; T/C [1]: 87 % of control; T/C [2]: 86 % of control

Q: What does the source list for C=CCC(O)CC1CC2CCCCN2O1 (stereo not drawn)?
A: T/C (dose: 50.0 mg/kg/injection, schedule: Q04DX003 (ip), vehicle: saline): 104 % of control; T/C (dose: 100.0 mg/kg/injection, schedule: Q04DX003 (ip), vehicle: saline): 104 % of control; T/C (dose: 200.0 mg/kg/injection, schedule: Q04DX003 (ip), vehicle: saline): 99 % of control

Q: With CC(=Nc1cc(Cl)ccc1O)C1=C(O)c2ccccc2C1=O as the compound, how does the T/C (dose: 50.0 mg/kg/injection, schedule: Q04DX002 (ip), vehicle: saline with Tween-80) read?
A: 94 % of control

Q: What about the T/C [3] of the same compound?
A: 97 % of control

Q: And the T/C [4]?
A: 97 % of control

Q: CCOP(OCC)SSCn1nc2ccc3ccccc3n2c1=O was tested. Which T/C (dose: 15.0 mg/kg/injection, schedule: Q01DX005 (ip), vehicle: saline with Tween-80) did it give?
A: 98 % of control

Q: What about the T/C (dose: 30.0 mg/kg/injection, schedule: Q01DX005 (ip), vehicle: saline with Tween-80) of the same compound?
A: 97 % of control

Q: What about the T/C [5] of the same compound?
A: 103 % of control

Q: Which T/C [6] does the source give for O=C(NCCCCC(NC(=O)c1ccccc1)C(=O)O)OCc1ccccc1 (stereo not drawn) here?
A: 96 % of control

Q: What about the T/C [7] of the same compound?
A: 100 % of control

Q: What about the T/C [8] of the same compound?
A: 92 % of control

Q: Cc1c2cnccc2c(C)c2c1c1ccccc1n2CC1CO1 (stereo not drawn) was tested. Which T/C (dose: 6.25 mg/kg/injection, schedule: Q01DX009 (ip), vehicle: saline with Tween-80) did it give?
A: 155 % of control

Q: What about the T/C (dose: 8.0 mg/kg/injection, schedule: Q01DX009 (ip), vehicle: Klucel (hydroxypropylcellulose) (HPC)) of the same compound?
A: 111 % of control

Q: What about the T/C (dose: 11.0 mg/kg/injection, schedule: Q01DX009 (ip), vehicle: saline with Tween-80) of the same compound?
A: 158 % of control

Q: What about the T/C (dose: 12.5 mg/kg/injection, schedule: Q01DX009 (ip), vehicle: saline with Tween-80) of the same compound?
A: 152 % of control

Q: What about the T/C (dose: 16.0 mg/kg/injection, schedule: Q04DX003 (ip), vehicle: Klucel (hydroxypropylcellulose) (HPC)) of the same compound?
A: 122 % of control

Q: And the T/C (dose: 16.5 mg/kg/injection, schedule: Q01DX009 (ip), vehicle: saline with Tween-80)?
A: 171 % of control

Q: What about the T/C (dose: 25.0 mg/kg/injection, schedule: Q01DX009 (ip), vehicle: saline with Tween-80) of the same compound?
A: 160 % of control and 168 % of control

Q: What about the T/C [9] of the same compound?
A: 88 % of control

Q: And the T/C (dose: 128.0 mg/kg/injection, schedule: Q04DX003 (ip), vehicle: Klucel (hydroxypropylcellulose) (HPC))?
A: 159 % of control

Q: What does the source list for NC(=S)N/N=C\C(=O)c1cccc([N+](=O)[O-])c1?
A: T/C [9]: 94 % of control; T/C [10]: 105 % of control; T/C [11]: 96 % of control

Q: Which results are given for CC(NC(=O)C(=O)c1c[nH]c2ccccc12)C(=O)O (stereo not drawn)?
A: T/C [5]: 98 % of control; T/C [12]: 96 % of control; T/C [13]: 103 % of control

Q: Which T/C [14] does the source give for Cn1c(COc2ccc(/C=N/Nc3ccnc(N/N=C/c4ccc(OCc5c[n+]6ccccc6n5C)cc4)n3)cc2)c[n+]2ccccc12 here?
A: 105 % of control

Q: What about the T/C [15] of the same compound?
A: 106 % of control

Q: And the T/C [6]?
A: 104 % of control and 107 % of control

Q: What about the T/C [7] of the same compound?
A: 99 % of control

Q: What about the T/C [8] of the same compound?
A: 97 % of control

Q: With NC(=N\O)/C(N)=N\O as the compound, how does the T/C (dose: 50.0 mg/kg/injection, schedule: Q01DX009 (ip), vehicle: Klucel (hydroxypropylcellulose) (HPC)) read?
A: 100 % of control

Q: And the T/C (dose: 100.0 mg/kg/injection, schedule: Q01DX009 (ip), vehicle: Klucel (hydroxypropylcellulose) (HPC))?
A: 98 % of control

Q: What about the T/C (dose: 200.0 mg/kg/injection, schedule: Q01DX009 (ip), vehicle: Klucel (hydroxypropylcellulose) (HPC)) of the same compound?
A: 106 % of control

Q: What does the source list for Cc1cc(C)c(S(=O)(=O)n2ccnc2)c(C)c1?
A: T/C (dose: 25.0 mg/kg/injection, schedule: Q01DX009 (ip), vehicle: saline): 111 % of control; T/C (dose: 50.0 mg/kg/injection, schedule: Q01DX009 (ip), vehicle: saline): 97 % of control; T/C (dose: 100.0 mg/kg/injection, schedule: Q01DX009 (ip), vehicle: saline): 103 % of control; T/C (dose: 200.0 mg/kg/injection, schedule: Q01DX009 (ip), vehicle: saline): 106 % of control

Q: What does the source list for CCOc1cc(/C=N/NC(=O)N(c2ccccc2)c2ccccc2)ccc1O?
A: T/C [6]: 88 % of control; T/C [7]: 88 % of control

Q: CCN(CC)Cc1cc(N=Nc2ccc3c(c2)c2ccccc2n3CC)c2ccccc2c1O was tested. Which T/C [9] did it give?
A: 86 % of control

Q: What about the T/C [10] of the same compound?
A: 93 % of control

Q: And the T/C [11]?
A: 93 % of control

Q: Which results are given for COc1ccc2c(c1)C1(C)CCCC(C)(COC(C)=O)C1CC2 (stereo not drawn)?
A: T/C (dose: 7.5 mg/kg/injection, schedule: Q01DX009 (ip), vehicle: saline with Tween-80): 91 % of control; T/C (dose: 15.0 mg/kg/injection, schedule: Q01DX009 (ip), vehicle: saline with Tween-80): 91 % of control; T/C (dose: 30.0 mg/kg/injection, schedule: Q01DX009 (ip), vehicle: saline with Tween-80): 89 % of control

Q: For CC(C)OC(CCCl)c1ccc(Cl)cc1 (stereo not drawn), which T/C [1] is on record?
A: 109 % of control

Q: And the T/C [2]?
A: 100 % of control

Q: What does the source list for O=C(CNC(=O)c1ccccc1)N/N=C/c1ccccc1O?
A: T/C [5]: 100 % of control; T/C [12]: 101 % of control; T/C [13]: 100 % of control

Q: How did the T/C [9] turn out when CC(C)(C)N=C(CCSc1ccccc1)Nc1c(Cl)cccc1Cl was run?
A: 100 % of control

Q: What about the T/C [10] of the same compound?
A: 105 % of control

Q: And the T/C [11]?
A: 96 % of control

Q: Which T/C (dose: 100.0 mg/kg/injection, schedule: Q04DX002 (ip), vehicle: saline) does the source give for CCC1(c2ccccc2)C(=O)c2ccccc2C1=O here?
A: 101 % of control

Q: And the T/C (dose: 200.0 mg/kg/injection, schedule: Q04DX002 (ip), vehicle: saline)?
A: 102 % of control

Q: And the T/C (dose: 400.0 mg/kg/injection, schedule: Q04DX002 (ip), vehicle: saline)?
A: 105 % of control

Q: Which T/C [3] does the source give for O=Cc1c2cnc(c1O)CSCCCCSC2 here?
A: 99 % of control

Q: What about the T/C [4] of the same compound?
A: 96 % of control

Q: What about the T/C (dose: 400.0 mg/kg/injection, schedule: Q04DX002 (ip), vehicle: saline with Tween-80) of the same compound?
A: 101 % of control

Q: For CSc1nc(C)nc2sc(CO)nc12, which T/C (dose: 100.0 mg/kg/injection, schedule: Q04DX002 (ip), vehicle: suspension in saline) is on record?
A: 97 % of control

Q: And the T/C (dose: 200.0 mg/kg/injection, schedule: Q04DX002 (ip), vehicle: suspension in saline)?
A: 97 % of control

Q: And the T/C (dose: 400.0 mg/kg/injection, schedule: Q04DX002 (ip), vehicle: suspension in saline)?
A: 96 % of control

Q: For O=C1N/C(=C\c2nc3ccccc3s2)c2ccccc21, which T/C [9] is on record?
A: 96 % of control

Q: And the T/C [10]?
A: 90 % of control

Q: What about the T/C [11] of the same compound?
A: 89 % of control

Q: With COc1cccc2c1C(=O)c1c(O)c3c(c(O)c1C2=O)CC(O)(C(C)=O)CC3OC1CC(NC(=O)C(F)(F)F)C(OC(=O)c2ccc([N+](=O)[O-])cc2)C(C)O1 (stereo not drawn) as the compound, how does the T/C (dose: 3.13 mg/kg/injection, schedule: Q04DX003 (ip), vehicle: distilled water + Tween-80) read?
A: 102 % of control and 98 % of control

Q: What about the T/C (dose: 6.25 mg/kg/injection, schedule: Q04DX003 (ip), vehicle: distilled water + Tween-80) of the same compound?
A: 101 % of control and 100 % of control

Q: And the T/C (dose: 12.5 mg/kg/injection, schedule: Q04DX003 (ip), vehicle: distilled water + Tween-80)?
A: 99 % of control and 97 % of control

Q: And the T/C (dose: 25.0 mg/kg/injection, schedule: Q04DX003 (ip), vehicle: distilled water + Tween-80)?
A: 111 % of control and 108 % of control

Q: And the T/C (dose: 50.0 mg/kg/injection, schedule: Q04DX003 (ip), vehicle: distilled water + Tween-80)?
A: 95 % of control and 100 % of control

Q: Which T/C (dose: 6.25 mg/kg/injection, schedule: Q01DX005 (ip), vehicle: saline with Tween-80) does the source give for C#CC(C)(CC(C)C)OCCN(CC)CC (stereo not drawn) here?
A: 106 % of control

Q: What about the T/C [14] of the same compound?
A: 104 % of control

Q: What about the T/C [15] of the same compound?
A: 104 % of control

Q: COC(=O)[C@@H]1CON(Cc2ccccc2)C1CC1(C)OCCO1 (stereo partly drawn) was tested. Which T/C [5] did it give?
A: 103 % of control

Q: What about the T/C [12] of the same compound?
A: 104 % of control

Q: What about the T/C [13] of the same compound?
A: 109 % of control
